# Data as given in article doi:10.1101/2023.10.01.560353v1 (bioRxiv, 2023).
# Peptide text beside a SMILES is read from it.
# System: 11 clinically relevant bacterial pathogens
# Assay: MIC over the panel of pathogens
# Format: cell-based
# Conditions: Table S17; lowest MIC over the strains tested
row,SMILES,MIC (lowest MIC value obtained in the antimicrobial activity assays)
1,CC[C@H](C)[C@H](NC(=O)[C@H](CCCCN)NC(=O)[C@H](CC(C)C)NC(=O)[C@H](CCC(N)=O)NC(=O)[C@H](Cc1ccccc1)NC(=O)[C@@H](NC(=O)[C@@H](NC(=O)[C@H](Cc1ccccc1)NC(=O)[C@H](CC(C)C)NC(=O)[C@@H](NC(=O)[C@@H](N)CC(C)C)[C@@H](C)O)[C@@H](C)CC)[C@@H](C)CC)C(=O)N[C@@H](CO)C(=O)N[C@@H](CCCCN)C(=O)N[C@@H](CC(C)C)C(=O)O [Paleopropin-1] (H-LTLFIIFQLKISKL-OH),32000 mM
2,CC[C@H](C)[C@H](NC(=O)[C@H](Cc1ccccc1)NC(=O)[C@@H](N)CC(C)C)C(=O)NCC(=O)N[C@@H](CC(C)C)C(=O)N[C@H](C(=O)N[C@@H](CC(N)=O)C(=O)N[C@@H](CC(C)C)C(=O)N[C@@H](CC(C)C)C(=O)NCC(=O)N[C@@H](CC(C)C)C(=O)N[C@@H](CC(C)C)C(=O)O)[C@@H](C)O [Mammuthusin-4] (H-LFIGLTNLLGLL-OH),2000 mM
3,CC[C@H](C)[C@H](N)C(=O)N[C@H](C(=O)NCC(=O)N[C@@H](CC(N)=O)C(=O)N[C@H](C(=O)N[C@@H](Cc1ccccc1)C(=O)NCC(=O)N[C@@H](Cc1ccccc1)C(=O)N[C@@H](CCCCN)C(=O)N[C@@H](C)C(=O)N[C@@H](CC(C)C)C(=O)N[C@@H](CCCNC(=N)N)C(=O)N[C@@H](C)C(=O)N[C@@H](CC(C)C)C(=O)N[C@@H](CCCNC(=N)N)C(=O)N[C@@H](CC(C)C)C(=O)O)C(C)C)C(C)C [Hesperelin-4] (H-IVGNVFGFKALRALRL-OH),64000 mM
4,CC[C@H](C)[C@H](NC(=O)[C@H](CCCCN)NC(=O)[C@H](CC(C)C)NC(=O)[C@@H](NC(=O)[C@@H](N)CCCCN)[C@@H](C)O)C(=O)N[C@H](C(=O)N[C@@H](CCCNC(=N)N)C(=O)N[C@@H](CC(C)C)C(=O)N[C@@H](CC(C)C)C(=O)N[C@@H](Cc1ccccc1)C(=O)O)[C@@H](C)CC [Mammuthusin-3] (H-KTLKIIRLLF-OH),16000 mM
5,CC[C@H](C)[C@H](NC(=O)[C@H](CC(C)C)NC(=O)[C@@H](NC(=O)[C@H](CCCCN)NC(=O)[C@H](Cc1c[nH]c2ccccc12)NC(=O)[C@@H](NC(=O)[C@H](CCCCN)NC(=O)[C@H](CC(=O)O)NC(=O)[C@@H](NC(=O)[C@H](CC(C)C)NC(=O)[C@H](Cc1ccccc1)NC(=O)[C@H](C)NC(=O)CNC(=O)[C@@H](NC(=O)[C@@H](N)CCCCN)C(C)C)C(C)C)C(C)C)[C@@H](C)O)C(=O)O [Anomalopterin-2] (H-KVGAFLVDKVWKTLI-OH),32000 mM
6,CC[C@H](C)[C@H](NC(=O)[C@H](CC(C)C)NC(=O)[C@H](CCCNC(=N)N)NC(=O)[C@H](Cc1c[nH]c2ccccc12)NC(=O)[C@H](CC(C)C)NC(=O)[C@@H](NC(=O)[C@H](CCCNC(=N)N)NC(=O)[C@H](CCC(N)=O)NC(=O)[C@H](Cc1ccc(O)cc1)NC(=O)[C@H](CC(C)C)NC(=O)[C@@H](N)CCCCN)[C@@H](C)CC)C(=O)N[C@@H](CO)C(=O)N[C@@H](CCC(=O)O)C(=O)N[C@@H](CC(C)C)C(=O)O [Equusin-3] (H-KLYQRILWRLISEL-OH),4000 mM
7,CC[C@H](C)[C@H](NC(=O)[C@H](CCCCN)NC(=O)[C@@H](NC(=O)[C@H](Cc1c[nH]c2ccccc12)NC(=O)[C@@H](N)CCCCN)[C@@H](C)O)C(=O)N[C@@H](Cc1ccc(O)cc1)C(=O)N[C@@H](CC(C)C)C(=O)N1CCC[C@H]1C(=O)N[C@@H](CC(C)C)C(=O)N[C@@H](CC(C)C)C(=O)N[C@@H](CC(C)C)C(=O)N1CCC[C@H]1C(=O)N[C@@H](CC(C)C)C(=O)O [Bisonin-2] (H-KWTKIYLPLLLPL-OH),8000 mM
8,CC[C@H](C)[C@H](N)C(=O)N[C@@H](Cc1ccccc1)C(=O)N[C@@H](CC(C)C)C(=O)N[C@@H](Cc1c[nH]cn1)C(=O)N[C@@H](CC(C)C)C(=O)N[C@@H](CCCCN)C(=O)N[C@H](C(=O)N[C@@H](CC(C)C)C(=O)N[C@@H](CCCCN)C(=O)N[C@H](C(=O)N[C@H](C(=O)N[C@@H](Cc1c[nH]cn1)C(=O)N[C@@H](CC(C)C)C(=O)N[C@@H](CC(C)C)C(=O)O)[C@@H](C)CC)[C@@H](C)CC)[C@@H](C)O [Mammuthusin-1] (H-IFLHLKTLKIIHLL-OH),4000 mM
9,CC[C@H](C)[C@H](NC(=O)[C@H](Cc1ccccc1)NC(=O)[C@@H](N)CCCCN)C(=O)N[C@@H](CC(C)C)C(=O)N[C@@H](CC(N)=O)C(=O)N[C@@H](Cc1ccccc1)C(=O)N[C@@H](CCCCN)C(=O)N[C@H](C(=O)N1CCC[C@H]1C(=O)N[C@H](C(=O)N[C@@H](CO)C(=O)N[C@@H](Cc1ccccc1)C(=O)N[C@@H](CCCCN)C(=O)O)[C@@H](C)CC)[C@@H](C)CC [Pinguinusin-1] (H-KFILNFKIPISFK-OH),4000 mM
10,CC[C@H](C)[C@H](N)C(=O)N[C@@H](CC(C)C)C(=O)N[C@@H](CC(C)C)C(=O)N[C@H](C(=O)N[C@H](C(=O)N[C@@H](C)C(=O)N[C@H](C(=O)N[C@@H](C)C(=O)N[C@H](C(=O)N[C@@H](CCCCN)C(=O)N[C@@H](CC(C)C)C(=O)NCC(=O)N[C@@H](CC(C)C)C(=O)O)[C@@H](C)CC)[C@@H](C)CC)[C@@H](C)O)[C@@H](C)O [Ararin-1] (H-ILLTTAIAIKLGL-OH),32000 mM
11,CC[C@H](C)[C@H](NC(=O)[C@@H](NC(=O)[C@H](CCSC)NC(=O)[C@@H](N)Cc1c[nH]c2ccccc12)[C@@H](C)O)C(=O)N[C@@H](Cc1c[nH]cn1)C(=O)N[C@@H](C)C(=O)N[C@@H](CC(C)C)C(=O)N[C@@H](CCCCN)C(=O)N[C@@H](CC(C)C)C(=O)N[C@@H](CO)C(=O)N[C@@H](CC(C)C)C(=O)N[C@@H](CO)C(=O)N[C@@H](Cc1ccccc1)C(=O)N[C@@H](CCCCN)C(=O)N[C@@H](CC(C)C)C(=O)O [Mammutin-1] (H-WMTIHALKLSLSFKL-OH),2000 mM
12,CC[C@H](C)[C@H](N)C(=O)N[C@@H](CC(C)C)C(=O)N[C@H](C(=O)N[C@@H](CC(C)C)C(=O)N[C@@H](Cc1ccccc1)C(=O)N[C@H](C(=O)N[C@H](C(=O)N[C@@H](Cc1ccccc1)C(=O)N[C@@H](CCC(N)=O)C(=O)N[C@@H](CC(C)C)C(=O)N[C@@H](CCCCN)C(=O)N[C@H](C(=O)N[C@@H](CO)C(=O)N[C@@H](CCCCN)C(=O)N[C@@H](CC(C)C)C(=O)O)[C@@H](C)CC)[C@@H](C)CC)[C@@H](C)CC)[C@@H](C)O [Paleopropin-2] (H-ILTLFIIFQLKISKL-OH),16000 mM
13,CC[C@H](C)[C@H](NC(=O)[C@@H](NC(=O)[C@H](Cc1c[nH]c2ccccc12)NC(=O)[C@H](CCCCN)NC(=O)[C@@H](N)CCCCN)C(C)C)C(=O)N[C@@H](CCCCN)C(=O)N[C@@H](CO)C(=O)N[C@H](C(=O)N[C@H](C(=O)N[C@@H](Cc1ccccc1)C(=O)N[C@@H](Cc1ccccc1)C(=O)N[C@@H](CCCCN)C(=O)O)C(C)C)C(C)C [Hesperelin-2] (H-KKWVIKSVVFFK-OH),8000 mM
